Article PMC10587869, “Deciphering Structural Determinants Distinguishing Active from Inactive Cell-Penetrating Peptides for Cytosolic mRNA Delivery” (Bioconjugate Chemistry, 2023)
Positions of bridges follow the written chain, without caps; N, C: chain ends. Non-standard residues stand in square brackets, D forms with d. Residues, ends and D or L forms follow the SMILES beside them. No end group written: not given here. *: point of attachment. Stearoyl = CCCCCCCCCCCCCCCCCC(=O)*; Orn = NCCC[C@H](N)C(=O)O

Legend:
HeLa cells = assay: Resazurin assay of metabolic activity after mRNA transfection; type: cell-based, human; conditions: normalized to untreated
Protocol: (§1) One day before mRNA transfections, 10 000 MC3T3 cells in 100 μL were seeded in 96-well plates (Greiner Bio-One Cat. No. 655180) or 20 000 cells in 200 μL in μ-slide eight-well chambers (Ibidi, Gräfelfing, Germany). These seeding densities ensured confluency between ∼70 and 90% on the day of transfection. mRNA transfections were performed by removing the complete medium from the wells and replacing it with mRNA nanoparticles diluted 10 times in complete medium. Cells were exposed to mRNA nanoparticles for 2 h at 37 °C, 5% CO2, in a humidified incubator. For some experiments, cells were stained with 200 μL of 1 μM CellTrace yellow (Thermo Fisher Scientific, Cat. No. C34567) directly after the nanoparticle incubation, according to the manufacturer’s instructions. Regardless of the tested N/P ratio or type of nanoparticle, mRNA inputs were equalized across conditions, resulting in 107 ng/well for luciferase assays in 96-well plate formats and 214 ng/well for confocal microscopy experiments. […] For untreated controls, complete cell culture medium was added and refreshed as often as in the experimental conditions.
(§2) The resazurin-based assay was performed essentially as described previously.[61],[62] In brief, the effect of different peptide-mRNA complexes on the metabolic activity of cells was measured 24 h post-transfection. Resazurin sodium salt (Sigma-Aldrich, Cat No. R7017) was dissolved in PBS and diluted 100 times to a final concentration of 100 μg/mL in complete medium. After 2 h of incubation with cells at 37 °C, fluorescence was measured using the VICTOR X3Multilabel Plate Reader (PerkinElmer, Waltham, MA, USA). After briefly shaking the plate, resazurin was excited at 485 nm, and emission was collected from 570 to 620 nm. All samples were blanked by the average signal of cell-free wells. Blanked data were normalized to untreated conditions per cell type.

MC3T3 cells [1] = assay: as above; type: cell-based, murine; design: concentration or dose not given beside the values; conditions: normalized to untreated
Protocol: as §1, §2

[2] = Heparin-mediated polyplex decomplexation assay (QuantiFluor RNA); type: physicochemical; conditions: for stability of polyplexes against heparin-induced decomplexation: N/P 5, TE buffer pH 7.5, 37 °C 90 min, released mRNA by QuantiFluor RNA dye, Figure 7
Protocol: For testing the stability of mRNA polyplexes, a polyanion decomplexation assay, mediated by the polyanionic heparin (heparin sodium salt from porcine intestinal mucosa, Cat. No. H3149-100 KU, Sigma-Aldrich) was performed. mRNA polyplexes were freshly prepared with uncapped SecNLuc mRNA (RIBOPRO), as described in the section mRNA Nanoparticle Formation. Following polyplex formation, all samples were incubated for at least 30 min at room temperature. Importantly, separate stock solutions of heparin were made to ensure an equal volume across conditions regardless of heparin concentration. For decomplexation, 5 μL of 10× polyplexes were diluted in RNase-free TE-buffer at pH 7.5 (Promega, Cat. No. E260A) supplemented with an equal volume of heparin across conditions to a total volume of 50 μL in a 384-well plate (Greiner Bio-One, Cat. No. 781101). All samples were quickly spun down before incubation at 37 °C for 90 min. The QuantiFluor RNA System (Promega, Cat. No. E3310) was used with a 1:2000 dilution of RNA-binding dye for all tested conditions to detect released mRNA. For quantification, a calibration curve with uncapped SecNLuc mRNA was made, spanning from 0.19 ng mRNA/well to 50 ng mRNA/well. For detection of released mRNA, the dye was excited at 485 nm, and emission was collected at 535 nm using the VICTOR X3Multilabel Plate Reader (PerkinElmer)
Data analysis was performed using GraphPad Prism (GraphPad Software, version 8.4.2, San Diego, CA, USA). Data are presented as means ± standard deviation (SD) unless stated otherwise. Means were calculated by first averaging the technical replicates, for which outliers were identified using Grubbs’ test, followed by averaging the biological replicates. Before statistical analysis, all data were checked for normal distribution with a Shapiro–Wilk test. Statistical analysis was done using one- or two-way analysis of variance (ANOVA). Multiple comparisons were corrected using Tukey’s test with 95% confidence intervals. For the mRNA standard curve used in heparin decomplexation assays, the coefficient of variation was determined both in the standards and in samples and was ≤20%. The standard curve was fitted using a sigmoidal four-parameter logistic curve. The standard curve was back fitted with ±10% accuracy to verify the correctness of the fit. The signals from samples were blanked with the appropriate solution (TE buffer) before calculating interpolations. p > 0.05 was considered not significant, and p values were reported using the GraphPad Prism style (*p ≤ 0.05, **p ≤ 0.01, ***p ≤ 0.001, and ****p ≤ 0.0001).

MC3T3 cells [3] = assay: Cellular uptake of Cy5-eGFP mRNA polyplexes, live-cell confocal microscopy; type: cell-based, murine; conditions: for effect of oligomerization on uptake: Cy5-labeled mRNA, polymerized vs monomeric, Figure 5, Figure S5; for ratio of Poly hLF-x vs Mono-hLF-x, Corrected Total Cellular Fluorescence (Cy5): Cy5-eGFP mRNA polyplexes, 2 h post-transfection, n = 5 fields of view per condition
Protocol: Peptide-mRNA polyplexes were formulated as previously described.[40],[41] In short, two separate stock solutions of mRNA and peptide were prepared in MQ and simultaneously dispensed with electronically dispensing pipettes (E4 Electronic Pipette, LTS E4-100XLS+, Mettler-Toledo Rainin, LLC, Oakland, CA, USA) at a flow rate of 11 mL min^–1. All polyplexes were formed at a concentration of at least 10-fold the final intended concentration for transfections.
as §1
Before microscopy, complete medium containing phenol red was replaced with an equal volume of phenol red-free and HEPES-formulated Opti-MEM (Gibco). The uptake of Cy5-eGFP mRNA-formulated nanoparticles was assessed 2 h post-transfection, and eGFP expression was assessed 24 h post-transfection. Live-cell imaging was performed using a Leica TCS SP8 SMD (Leica Microsystems, Mannheim, Germany) with an HC PL APO CS2 63×/1.20 water objective and a temperature-controlled stage at 36.5 °C. eGFP was excited at 488 nm (emission: 500–550 nm). CellTrace yellow was excited at 555 nm (emission: 570–620 nm), and Cy5 was excited at 633 nm (emission: 650–690 nm). All laser lines were generated by a white-light laser, and emissions were detected with hybrid detectors. All channels were sequentially acquired to avoid crosstalk at a bit depth of 12. Except for the LMM eGFP conditions (reduced gain), equal acquisition settings (pixel size, pinhole, laser power, and gain) per fluorophore were used within the experiments.
Quantification of the Cy5 fluorescence was performed as previously described.[59],[60] In brief, five separate images (unless stated otherwise) containing approximately 10 cells per image were analyzed using ImageJ (version 1.53f51). A square mask of 184.52 μm^2 was used to quantify the raw integrated density (sum of all pixels in a region of interest). Importantly, cell confluencies ranged from ∼80–95%, ensuring minimal impact of cell density on total fluorescence values. The brightness and contrast of the images were adjusted to find a cell-free region to determine background fluorescence. Then, a circle was drawn to measure the background fluorescence. To obtain the corrected total cellular fluorescence (CTCF), the area (in pixels) was multiplied by the mean gray value of the background and subsequently subtracted from the raw integrated density.

[4] = N/P 5, resazurin 24 h post-transfection
[5] = MC3T3, N/P 3, resazurin 24 h post-transfection
[6] = MC3T3, N/P 5, resazurin 24 h post-transfection

With `CC[C@H](C)[C@H](NC(=O)[C@@H]1CSSC[C@H](NC(=O)[C@H](CCCCN)NC(C)=O)C(=O)N[C@@H](Cc2ccccc2)C(=O)N[C@@H](CCC(N)=O)C(=O)N[C@@H](Cc2c[nH]c3ccccc23)C(=O)N[C@@H](CCC(N)=O)C(=O)N[C@@H](CCCNC(=N)N)C(=O)N[C@@H](CC(N)=O)C(=O)N[C@@H](CCSC)C(=O)N[C@@H](CCCNC(=N)N)C(=O)N[C@@H](CCCCN)C(=O)N[C@@H](C(C)C)C(=O)N[C@@H](CCCNC(=N)N)C(=O)NCC(=O)N2CCC[C@H]2C(=O)N2CCC[C@H]2C(=O)N[C@@H](C(C)C)C(=O)N[C@@H](CO)C(=O)N1)C(=O)N[C@@H](CCCCN)C(=O)N[C@@H](CCCNC(=N)N)C(N)=O` [Mono-hLF-WT] (Ac-KCFQWQRNMRKVRGPPVSCIKR-NH2; disulfide 2-19) the relative metabolic activity (HeLa cells; [4]) was 83%, the relative metabolic activity (MC3T3 cells [1]; [5]) was 125% and the “stability of polyplexes against heparin-induced decomplexation” value [2] was “significantly lower stability of these polyplexes compared to PF14, except for the highest heparin dose”.
For `CC(C)C[C@@H]1NC(=O)[C@H](C)NC(=O)[C@H](CCCN)NC(=O)[C@H](C(C)C)NC(=O)[C@H](CCCN)NC(=O)[C@H](CCCN)NC(=O)[C@H](CC(C)C)NC(=O)[C@H](CC(N)=O)NC(=O)[C@H](CCCN)NC(=O)[C@H](CC(C)C)NC(=O)[C@H](Cc2c[nH]c3ccccc23)NC(=O)[C@H](CCC(N)=O)NC(=O)[C@H](Cc2ccccc2)NC(=O)[C@@H](NC(=O)[C@@H](N)CCCN)CSSC[C@@H](C(=O)N[C@@H](CC(C)C)C(=O)N[C@@H](CCCN)C(=O)N[C@@H](CCCN)C(N)=O)NC(=O)[C@H](CO)NC(=O)[C@H](C(C)C)NC(=O)[C@H](CC(C)C)NC1=O` [Mono-hLF-v3] (H-[Orn]CFQWL[Orn]NL[Orn][Orn]V[Orn]ALLVSCL[Orn][Orn]-NH2; disulfide 2-19), the relative metabolic activity (MC3T3 cells [1]; [5]) was 125%.
Work on `CCCCCCCCCCCCCCCCCC(=O)N[C@@H](C)C(=O)NCC(=O)N[C@@H](Cc1ccc(O)cc1)C(=O)N[C@@H](CC(C)C)C(=O)N[C@@H](CC(C)C)C(=O)NCC(=O)N[C@@H](CCCCN)C(=O)N[C@@H](CC(C)C)C(=O)N[C@@H](CC(C)C)C(=O)N[C@@H](CCCN)C(=O)N[C@@H](CCCN)C(=O)N[C@@H](CC(C)C)C(=O)N[C@@H](C)C(=O)N[C@@H](C)C(=O)N[C@@H](C)C(=O)N[C@@H](C)C(=O)N[C@@H](CC(C)C)C(=O)N[C@@H](CCCN)C(=O)N[C@@H](CCCN)C(=O)N[C@@H](CC(C)C)C(=O)N[C@@H](CC(C)C)C(N)=O` [PF14, reference compound] (Stearoyl-AGYLLGKLL[Orn][Orn]LAAAAL[Orn][Orn]LL-NH2) yielded a relative metabolic activity (HeLa cells; N/P 3, resazurin 24 h post-transfection) of 72%, a relative metabolic activity (HeLa cells; [4]) of 13% and a relative metabolic activity (MC3T3 cells [1]; [6]) of 64%. The “stability against heparin decomplexation” value ([2]; N/P 7, low heparin dose, Figure S8) was “least stable”.
Work on `CC(C)C[C@@H]1NC(=O)[C@H](C)NC(=O)[C@H](CCCCN)NC(=O)[C@H](C(C)C)NC(=O)[C@H](CCCCN)NC(=O)[C@H](CCCCN)NC(=O)[C@H](CC(C)C)NC(=O)[C@H](CC(N)=O)NC(=O)[C@H](CCCCN)NC(=O)[C@H](CC(C)C)NC(=O)[C@H](Cc2c[nH]c3ccccc23)NC(=O)[C@H](CCC(N)=O)NC(=O)[C@H](Cc2ccccc2)NC(=O)[C@@H](NC(=O)[C@@H](N)CCCCN)CSSC[C@@H](C(=O)N[C@@H](CC(C)C)C(=O)N[C@@H](CCCCN)C(=O)N[C@@H](CCCCN)C(N)=O)NC(=O)[C@H](CO)NC(=O)[C@H](C(C)C)NC(=O)[C@H](CC(C)C)NC1=O` [mono-hLF-v2] (H-KCFQWLKNLKKVKALLVSCLKK-NH2; disulfide 2-19) yielded a relative metabolic activity (MC3T3 cells [1]; [6]) of ~125%.
In the case of “KCFQWLKNLKKVKALLVSCLKK [hLF-v2, lysine-substituted amphipathic hLF variant]”, the “effect of oligomerization on uptake” value (MC3T3 cells [3]; 2 h incubation) is reported as “pronounced increase in uptake”.
In the case of “KCFQWQRNMRKVRGPPVSCIKR (disulfide 2-19 (inferred)) [Poly hLF-WT, hLF-WT oligomerized through intermolecular disulfide bonds]”, the “stability of polyplexes against heparin-induced decomplexation” value [2] is reported as “significantly lower release of mRNA”.
In the case of “OCFQWLONLOOVOALLVSCLOO (disulfide) [poly hLF-v3, polymeric hLF-v3]”, the “uptake of Cy5-labeled mRNA polyplexes of amphipathic hLF variants” value (MC3T3 cells [3]; 2 h incubation, live-cell confocal microscopy, serum present, Figure 5, four independent experiments) is reported as “comparable to the one of PF14” and the relative metabolic activity (MC3T3 cells [1]; [6]) is reported as ~125%.
For “OCFQWLONLOOVOALLVSCLOO [hLF-v3, ornithine-substituted amphipathic hLF variant]”, the “effect of oligomerization on uptake” value (MC3T3 cells [3]; 2 h incubation) was “pronounced increase in uptake”.
In the case of “OCFQWQHNMOHVHGPPVSCIOH [hLF-His&Orn, hLF analog with positively charged residues replaced by histidines and ornithines]”, the “ratio of Poly hLF-x vs Mono-hLF-x, Corrected Total Cellular Fluorescence (Cy5)” value (MC3T3 cells [3]) is reported as 2.42 x.
With “OCFQWQONMOOVOGPPVSCIOO (disulfide) [poly-hLF-Orn, hLF-Orn oligomerized through intermolecular disulfide bonds]” the “difference in heparin decomplexation” value ([2]; N/P 1 and 3, low or high heparin amounts, Figure S8) was “no difference”.
For “OCFQWQONMOOVOGPPVSCIOO [hLF-Orn, hLF analog with positively charged residues replaced by ornithines]”, the “ratio of Poly hLF-x vs Mono-hLF-x, Corrected Total Cellular Fluorescence (Cy5)” value (MC3T3 cells [3]) was 1.19 x.
